# Data: ChEMBL document CHEMBL5725304, “3,4-dihydro-2H-isoquinoline-1-one and 2,3-dihydro-isoindol-1-one compounds” (2017)
# Values joined by “and” are separate entries in the source; they are usually repeats but may differ in a detail not shown here. Equal entries are not always repeated.
# Key:
# [1] = target: T1, Cytochrome P450 11B2, mitochondrial (Homo sapiens, UniProt P19099); test: (§1) Cellular Enzyme Assay: G-402 cells expressing CYP11 constructs were established as described above and maintained in McCoy's 5a Medium Modified, ATCC Catalog No. 30-2007 containing 10% FCS and 400 ug/ml G418 (Geneticin) at 37° C. under an atmosphere of 5% CO2/95% air. Cellular enzyme assays were performed in DMEM/F12 medium containing 2.5% charcoal treated FCS and appropriate concentration of substrate (0.3-10 uM 11-Deoxycorticosterone, 11-Deoxycortisol or Corticosterone). For assaying enzymatic activity, cells were plated onto 96 well plates and incubated for 16 h. An aliquot of the supernatant is then transferred and analyzed for the concentration of the expected product (Aldosterone for CYP11B2; Cortisol for CYP11B1). The concentrations of these steroids can be determined using HTRF assays from CisBio analyzing either Aldosterone or Cortisol.
# T1 sequence (P19099 whole entry): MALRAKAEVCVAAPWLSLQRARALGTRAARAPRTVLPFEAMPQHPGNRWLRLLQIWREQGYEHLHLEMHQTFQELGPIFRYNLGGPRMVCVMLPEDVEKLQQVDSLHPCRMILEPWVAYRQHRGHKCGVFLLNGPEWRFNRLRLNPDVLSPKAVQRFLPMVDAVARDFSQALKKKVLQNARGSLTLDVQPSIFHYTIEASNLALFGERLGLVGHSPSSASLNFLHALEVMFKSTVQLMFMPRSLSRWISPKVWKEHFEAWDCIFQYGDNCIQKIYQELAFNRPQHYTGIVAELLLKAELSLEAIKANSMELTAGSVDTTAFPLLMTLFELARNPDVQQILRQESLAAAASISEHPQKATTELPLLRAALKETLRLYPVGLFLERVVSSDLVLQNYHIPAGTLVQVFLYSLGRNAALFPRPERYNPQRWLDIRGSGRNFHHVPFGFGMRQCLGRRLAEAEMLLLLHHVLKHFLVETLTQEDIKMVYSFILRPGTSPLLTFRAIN
# [2] = target: T2, Cytochrome P450 11B1, mitochondrial (Homo sapiens, UniProt P15538); test: as §1
# T2 sequence (P15538 whole entry): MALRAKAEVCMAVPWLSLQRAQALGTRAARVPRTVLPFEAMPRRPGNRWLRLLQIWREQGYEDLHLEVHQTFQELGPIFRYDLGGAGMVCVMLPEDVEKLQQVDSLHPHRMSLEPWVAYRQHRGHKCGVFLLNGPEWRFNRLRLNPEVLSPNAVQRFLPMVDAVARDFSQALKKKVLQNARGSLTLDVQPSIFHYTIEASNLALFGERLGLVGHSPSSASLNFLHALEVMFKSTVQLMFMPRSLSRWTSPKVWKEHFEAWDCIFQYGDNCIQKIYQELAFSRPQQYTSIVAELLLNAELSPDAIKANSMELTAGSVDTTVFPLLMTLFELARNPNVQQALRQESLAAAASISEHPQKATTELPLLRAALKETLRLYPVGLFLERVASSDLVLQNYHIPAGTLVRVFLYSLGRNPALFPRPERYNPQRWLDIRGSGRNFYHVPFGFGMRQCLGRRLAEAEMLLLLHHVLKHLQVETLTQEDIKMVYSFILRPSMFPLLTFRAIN
smiles,measurement,setting,value
"CCS(=O)(=O)N1CCC(N(C)c2cncc(N3C(=O)c4ccc(Cl)cc4C3(C)C)c2)C1 (single isomer, unassigned)",EC50,[1],1 nM and 0.6 nM
same,EC50,[2],188 nM and 124 nM
